The conditions of this series: 25 mM in DMSO, dark, 24 h, visual inspection.

Experimental findings from publication PMC11091889, “Silver Organometallics that are Highly Potent Thioredoxin and Glutathione Reductase Inhibitors: Exploring the Correlations of Solution Chemistry with the Strong Antibacterial Effects” (ACS Infectious Diseases, 2024) are described below.

Experimental: Because of the formation of black colloidal silver in the course of degradation, the solution stability of silver NHC complexes can be monitored visually and with the help of nephelometry. All synthesized complexes were dissolved at 25 mM in DMSO and kept in the dark for 24 h.
After the experiment, the DMSO stock solutions of compounds were kept away from direct light at room temperature for 24 h to monitor the stability of solutions.

On to `CC(C)n1[c](=[Ag][I])n(Cc2ccccn2)c2ccccc21` [3c, Iodido (1-Isopropyl-3-(pyridin-2-ylmethyl)-benzimidazol-2-ylidene) Silver(I)], for which the “Solution stability (signs of degradation, precipitation, silver colloid)” value was “did not show clear signs of degradation”. The value for `COCCn1[c](=[Ag][I])n(Cc2ccccn2)c2ccccc21` [4c, Iodido (1-(2-Methoxyethyl)-3-(pyridin-2-ylmethyl)-benzimidazol-2-ylidene) Silver(I)] was “did not show clear signs of degradation”.
